{"source": "patent US11771705B2", "about": "“Adjuvant therapy for use in prostate cancer treatment” (priority 2017, dated 2023)", "key": {"[1]": {"settings": "20 mg or 40 mg daily, cited from earlier work"}, "[2]": {"test_system": "adenocarcinoma of the prostate", "assay": "Estetrol in prostate cancer patients treated with ADT, randomized placebo controlled (Example 3)", "type": "in vivo, male patients", "settings": "GnRH agonist plus 40 mg estetrol per day oral, 24 weeks", "source_text": "Male patients who have histologically confirmed adenocarcinoma of the prostate and who are qualifying for treatment with androgen deprivation therapy (ADT: GnRH agonist) are included. The study is randomized placebo controlled.\nRandomisation takes place after a patient is found to be eligible at the baseline visit. Subjects receive the study medication for a period of 24 weeks in total.\nSubjects receive blinded study medication (oral administration) as follows: • Investigational product: GnRH agonist plus 40 mg estetrol (E4) per day; • Placebo: GnRH agonist plus placebo.\nMedication should be taken in the morning between 8:00-10:00 AM. All patients concomitantly receive a prophylactic dose of dabigatran (220 mg once daily) or another anticoagulant.\nA total of 30 patients is being dosed as follows: 20 patient in the estetrol group and 10 patients in the reference therapy group (placebo).\nThe primary objective is to assess the additional effects of E4 on total T and free T. Secondary objectives include the assessment of the effects of E4 on SHBG, PSA response and lipids and lipoproteins. […]"}, "[3]": {"test_system": "adenocarcinoma of the prostate", "assay": "Estetrol on testosterone suppression and quality of life in prostate cancer patients treated with ADT (Example 4)", "type": "in vivo, male patients", "settings": "GnRH agonist plus 40 mg estetrol monohydrate p.o. per day, 24 weeks", "method": "Male patients who have histologically confirmed adenocarcinoma of the prostate and who are qualifying for treatment with androgen deprivation therapy (ADT: GnRH agonist) participate in randomized placebo controlled study. Randomisation takes place after a patient is found to be eligible at the baseline visit. Subjects receive the study medication for a period of 24 weeks in total. Subjects receive blinded study medication: • Investigational product: GnRH agonist plus 40 mg estetrol monohydrate (E4) p.o. per day; • Placebo: GnRH agonist plus placebo. Selection of the GnRH agonist is left to the doctors treating the individual patients. Medication is taken in the morning between 8:00-10:00 AM. A total of 60 patients is dosed as follows: 40 patient in the estetrol group and 20 patients in the reference therapy group (placebo). Effects of medication on total T, free T, SHBG, hot flushes, PSA response, endocrine parameters, adrenal androgens and the lipid profile are assessed. Further assessed are the effects on health related quality of life (using the Functional Assessment of Cancer Therapy Prostate (FACT-P) questionnaire and a small questionnaire on the presence and absence of endocrine related symptoms (Q-man questionnaire)) and effects on bone turnover (bone markers)."}, "[4]": {"type": "in vivo, healthy men", "method": "A phase I, double-blind, randomised, placebo-controlled, multiple dose study to evaluate the safety, pharmacokinetics and pharmacodynamics of multiple dosages of estetrol in healthy men.\nMale participants aged between 40 and 70 years were allocated to one of the following groups: • Group 1: 20 mg E4 (estetrol) or placebo; • Group 2: 40 mg E4 (estetrol) or placebo; • Group 3: 60 mg E4 (estetrol) or placebo.\nA total of 15 subjects were assigned to each dose group: 10 subjects were randomised to receive the active treatment (E4), 5 subjects were randomised to receive placebo treatment. In total […] participated in this study.\nDosing began with Group 1. The other groups were dosed consecutively. Dose escalation to the next E4 dose group proceeded based on reported adverse events (AEs), SHBG levels, lipids and haemostatic parameters. The decision to continue with the next higher E4 dose level was made by the Investigator, an independent expert and the Sponsor.\nE4 was supplied as tablets and taken orally every morning between 8:00-10:00 am, for 28 days. The total duration of the study, including screening was 84 days for each subject (Screening from Day −28 till Day −1, Clinical part from Day 1 till Day 56).\nThere were two primary outcome parameters in this study. First primary parameter was the safety evaluation of E4. Safety variables included vital signs, routine laboratory tests, physical examination, ECG measurement and monitoring of (S)AEs.\nSecond primary parameter was the hormones related to prostate function. FSH, LH, E2, total testosterone, free testosterone and sex hormone-binding globulin (SHBG) were measured.\nSecondary parameters included other pharmacodynamic and pharmacokinetic parameters. The pharmacodynamic parameters which were assessed are the following: • Haemostatic factors: (extrinsic) APC-resistance, prothrombin fragment 1+2, free tissue factor pathway inhibitor (TFPI), antithrombin activity, protein S activity, D-dimer, angiotensinogen; • Lipids and lipoproteins: total cholesterol, triglycerides, HDL-cholesterol, LDL-cholesterol and lipoprotein(a) (Lp(a)); • Carbohydrates: fasting serum glucose; • Bone turnover markers: osteocalcin, type I collagen telopeptide (CTX-1) and parathyroid hormone (PTH); • Prostate-specific antigen (PSA).\nPharmacokinetics were evaluated by measuring E4 trough levels on Day 2, 7, 14 and 28. Furthermore, on Day 28 before and at several time points after dosing E4 concentrations were measured."}, "[5]": {"type": "in vivo, male patients", "settings": "average of Day 7 and Day 14", "method": "For each group dosed at 2, 10, 20, 40 and 60 mg estetrol daily (oral administration), 7 to 10 male patients were tested for their plasma content in estetrol at Day 7 and at Day 14. For each dose group, the average trough level of all patients across both days was calculated."}, "[6]": {"settings": "Day 28 vs Day 1, 20, 40, 60 mg daily"}}, "note": "Where two headings read alike, the source gives them in different places.", "data": [{"compound": "C[C@]12CC[C@@H]3c4ccc(O)cc4CC[C@H]3[C@@H]1[C@@H](O)[C@@H](O)[C@@H]2O", "note": "[estetrol]", "values": [{"measurement": "Libido decreased during treatment", "setting": "[1]; both cohorts", "result": "8 of 20"}, {"measurement": "Nipple tenderness reported", "setting": "[1]; both cohorts", "result": "7 of 20"}, {"measurement": "Body weight and safety parameters", "setting": "[1]; healthy men 40-70 years", "result": "did not change"}, {"measurement": "Estradiol level", "setting": "[1]; healthy men 40-70 years", "result": "decreased"}, {"measurement": "FSH level", "setting": "[1]; healthy men 40-70 years", "result": "decreased"}, {"measurement": "Free testosterone level", "setting": "[1]; healthy men 40-70 years", "result": "decreased"}, {"measurement": "LH levels", "setting": "[1]; healthy men 40-70 years", "result": "did not change"}, {"measurement": "SHBG levels", "setting": "[1]; healthy men 40-70 years", "result": "increased"}, {"measurement": "Total testosterone level", "setting": "[1]; healthy men 40-70 years", "result": "decreased"}, {"measurement": "Efficacy and quality of life of ADT treatment for prostate cancer", "setting": "[2]", "result": "effective therapy to improve efficacy and quality of life"}, {"measurement": "Efficacy of ADT", "setting": "[3]", "result": "improves efficacy of ADT"}, {"measurement": "Quality of life of the prostate cancer patients", "setting": "[3]", "result": "improves quality of life"}, {"measurement": "HDL Cholesterol", "setting": "[4]; [6]", "result": "small increase"}, {"measurement": "Lowering effect on LDL Cholesterol", "setting": "[4]; [6]", "result": "about 20%"}, {"measurement": "TG (triglycerides)", "setting": "[4]; [6]", "result": "no changes"}, {"measurement": "Free testosterone level", "setting": "[4]; Day 28 vs Day 1, 20, 40, 60 mg daily (FIG. 1A)", "result": "decreased"}, {"measurement": "Total testosterone level", "setting": "[4]; Day 28 vs Day 1, 20, 40, 60 mg daily (FIG. 1B)", "result": "decreased"}, {"measurement": "SHBG level", "setting": "[4]; Day 28 vs Day 1, 20, 40, 60 mg daily (FIG. 1C)", "result": "increase"}, {"measurement": "LH level", "setting": "[4]; Day 28 vs Day 1, 20, 40, 60 mg daily (FIG. 1D)", "result": "not much change"}, {"measurement": "FSH levels", "setting": "[4]; Day 28 vs Day 1, 20, 40, 60 mg daily (FIG. 1E)", "result": "decreased"}, {"measurement": "Effects on bone (osteocalcin, CTX-1)", "setting": "[4]; Day 28 vs Day 1, 20, 40, 60 mg daily (FIGS. 2I, 2J)", "result": "beneficial estrogenic effects"}, {"measurement": "Changes in vital signs, ECG, physical examination and body weight", "setting": "[4]; daily oral dose of 20 mg, 40 mg or 60 mg for 28 days", "result": "No clinically relevant changes"}, {"measurement": "Tolerability", "setting": "[4]; daily oral dose of 20 mg, 40 mg or 60 mg for 28 days, healthy men aged 40-70 years", "result": "well tolerated"}, {"measurement": "LH levels after E4 administration", "setting": "[4]; shortly after dosing, only for a few hours", "result": "decreased"}, {"measurement": "Trough plasma level", "setting": "[5]; daily oral dose 2 mg", "result": 198, "unit": "pg/mL"}, {"measurement": "Trough plasma level", "setting": "[5]; daily oral dose 10 mg", "result": 1056, "unit": "pg/mL"}, {"measurement": "Trough plasma level", "setting": "[5]; daily oral dose 20 mg", "result": 2187, "unit": "pg/mL"}, {"measurement": "Trough plasma level", "setting": "[5]; daily oral dose 40 mg", "result": 4417, "unit": "pg/mL"}, {"measurement": "Trough plasma level", "setting": "[5]; daily oral dose 60 mg", "result": 6157, "unit": "pg/mL"}]}]}
